Test results published in patent US6822146B2, “Sulfonylurea-tolerant sunflower line M7” (priority 2000, dated 2004).

Tested on: Orobanche cumana
Test: Test D control of Orobanche cumana in resistant sunflower
Type: in vivo
Description: The purpose of this test was to evaluate the efficacy of tribenuron-methyl to control Orobanche cumana before and after crop emergence from the soil. Various herbicide treatments were evaluated using six replications of each treatment. Treatments investigated the following modes of application: seed coating, pre-emergence soil incorporation, bare-ground pre-emergence broadcast application, and post-emergence broadcast application. All herbicide treatments used formulated herbicide compositions.
For seed coating treatments, 3 mg of Orobanche cumana seeds were added to each pot containing a growing mixture of 60% dry loamy soil, 20% sand and 20% of peat, the growing mixture having an organic matter content of 4.2% and a pH of 8.05. The pots were placed in plastic trays and watered to the extent of 25% of soil weight. Pots were kept in a greenhouse for 8 to 10 days at about 24° C. during the day and 20° C. at night. Eight seeds of BC4-M5M12 sunflower resistant mutant were sown manually in the pots contaminated with Orobanche, at the end of the incubation period of the parasitic weed seeds.
Seeds were first coated using a table-top laboratory fluid bed equipped with a coating device (“Strea 1 Aerocoater” made by Niro Aeromatic, Haupstrasse 145, CH-4416 Bubendorf, Switzerland) and a coating solution containing about 23% Sepiret 8330® (coating composition sold by Seppic, 75 quai d'Orsay Paris 75321 cedex 07 France) and 77% water at the rate of 3 L/100 Kg of seeds. After coating, the seeds were dried in a fluid bed drier at 35° C. […] The coated seeds were then dried at ambient temperature and stored until sowing.
The soil was then thoroughly mixed by hand and dispensed into the pots. The quantities of tribenuron-methyl used in these treatments are expressed in g a.i./ha based on the soil volume and pot dimensions. The quantities applied were 11.25 and 22.5 g a.i./ha.
The effect of the various treatments was evaluated 35 days after sowing. The sunflower roots were cleaned by washing in water, and the presence of Orobanche nodules was determined visually and by weighing root wet mass in comparison to check plants free of Orobanche infestation. […] The nodules caused by Orobanche increased root weight, and a correlation (r=0.7) was found between visual scores and weight measurements. Thus the weighing technique could be used to corroborate visual efficacy scorings. Orobanche emergence was also scored but found to be less useful to evaluate treatment efficiency at the evaluation timing of this test.

SMILES: COC(=O)c1ccccc1S(=O)(=O)NC(=O)N(C)c1nc(C)nc(OC)n1 [Tribenuron-methyl, tribenuron-methyl]
- Control (post-emergence broadcast spray 2.25 g a.i./ha): 63%
- Control (pre-emergence broadcast spray 11.25 g a.i./ha + post-emergence broadcast spray 11.25 g a.i./ha): 78%
- Control (pre-emergence broadcast spray 22.5 g a.i./ha): 40%
- Control (pre-emergence soil incorporation 11.25 g a.i./ha): 55%
- Control (pre-emergence soil incorporation 22.5 g a.i./ha): 72%
- Control (seed coating 0.00001 mg a.i./g + post-emergence broadcast spray 2.25 g a.i./ha): 63%
- Control (seed coating 0.00001 mg a.i./g + post-emergence broadcast spray 11.25 g a.i./ha): 70%
- Control (seed coating 0.00001 mg a.i./g, host BC4-M5M12, 35 days after sowing): 8%
- Control (seed coating 0.1 mg a.i./g + post-emergence broadcast spray 2.25 g a.i./ha): 85%
- Control (seed coating 0.1 mg a.i./g + post-emergence broadcast spray 11.25 g a.i./ha): 80%
- Control (seed coating 0.1 mg a.i./g, host BC4-M5M12, 35 days after sowing): 37%
- Control (seed coating 10 mg a.i./g + post-emergence broadcast spray 2.25 g a.i./ha): 82%
- Control (seed coating 10 mg a.i./g + post-emergence broadcast spray 11.25 g a.i./ha): 89%
